In patent publication US11274111B2, “Arginase inhibitors and methods of use” (Merck Sharp & Dohme Corp., priority 2018, dated 2022):
Structures can show the parent of a compound that is named as a salt. Where two headings read alike, the source gives them in different places.

Target: T1, Arginase (Homo sapiens, UniProt P05089)
T1 construct: Arginase protein was recombinantly expressed in Escherichia coli
T1 sequence (P05089 1-322): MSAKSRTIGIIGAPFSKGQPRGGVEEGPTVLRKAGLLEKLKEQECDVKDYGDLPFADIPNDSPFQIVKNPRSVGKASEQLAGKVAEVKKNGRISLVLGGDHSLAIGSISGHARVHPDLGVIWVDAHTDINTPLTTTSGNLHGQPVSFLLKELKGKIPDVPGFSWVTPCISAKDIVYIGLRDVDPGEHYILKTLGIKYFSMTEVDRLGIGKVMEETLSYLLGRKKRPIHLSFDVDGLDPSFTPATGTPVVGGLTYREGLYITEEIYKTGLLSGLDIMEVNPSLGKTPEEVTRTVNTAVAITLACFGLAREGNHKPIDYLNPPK
Assay: Arginase Thioornithine Generating Assay (TOGA)
Type: biochemical
Conditions: for IC50: recombinant arginase 1.88 nM, thioarginine substrate; for inhibition at 100 µM: Top Dose 100000 nM
Procedure: Arginase Thioornithine Generating Assay (TOGA)
Compounds were serially diluted in ten 3-fold steps in DMSO starting from 10 mM DMSO stocks. Compound dilutions or DMSO alone were then dispensed from the dilution plate into a Greiner black 384-well assay plate (catalog #781086) using an Echo 555 acoustic liquid handler (Labcyte).
Arginase protein was recombinantly expressed in Escherichia coli. Purified protein was then diluted in assay buffer (50 mM Tris pH 7.5, 50 mM NaCl, 1 mM manganese chloride, 0.05% bovine serum albumin to obtain a final Arginase concentration of 1.88 nM. Arginase solution (20 μL) or buffer alone (20 μL) were dispensed to wells of the assay plate using a BioRAPTR liquid dispenser (Beckman Coulter). Assay plates containing compound and arginase enzyme were incubated at room temperature for 30 minutes. Afterwards, 5 μL of 2.5 mM thioarginine (Cayman Chemicals) in assay buffer were added to each well of the assay plate using a BioRAPTR liquid dispenser. Plates were incubated at room temperature for 60 minutes and reactions were quenched by addition of 15 μL of 200 uM 7-Diethylamine-3-(4-maleimidophenyl)-4-methylcoumarin (Sigma Chemical) in 70% ethanol. Plates were briefly shaken to mix and the fluorescence was measured in an Spectramax plate reader (Molecular Devices) with a 410 nm excitation wavelength and an 490 nm emission wavelength.
Potencies were calculated by […] to the four parameter logistic IC50 equation.

[1] = Top Dose 10000 nM, read-out: Percent Inhibition at Top Dose
[2] = read-out: Percent Inhibition at Top Dose, Top Dose 10000 nM
[3] = read-out: Percent Inhibition at Top Dose

Compound	inhibition at 10 µM [1]	IC50	other results
NC1(C(=O)O)CC2(CCNC2)OC1CCCB(O)O (stereo not drawn) [Example 41, 3-amino-2-(3-boronopropyl)-1-oxa-7-azaspiro[4.4]nonane-3-carboxylic acid]	97.7%		
NC1(C(=O)O)CC2CN(S(N)(=O)=O)CC2C1CCCB(O)O (single isomer, unassigned) [Example 18a, 5-amino-4-(3-boronopropyl)-2-sulfamoyloctahydrocyclopenta[c]pyrrole-5-carboxylic acid]	100%		
NC1(C(=O)O)c2cnccc2CC1CCCB(O)O (stereo not drawn) [Example 30, 7-amino-6-(3-boronopropyl)-6,7-dihydro-5H-cyclopenta[c]pyridine-7-carboxylic acid]	87.3%		
CN(C)[C@@H]1C[C@@H]2C[C@@](N)(C(=O)O)[C@@H](CCCB(O)O)[C@@H]2C1 [Example 50, (1S,2S,3aR,5R,6aR)-2-amino-1-(3-boronopropyl)-5-(dimethylamino)octahydropentalene-2-carboxylic acid]	97.8%		
CC1NC[C@@H]2[C@H]1CC(N)(C(=O)O)[C@H]2CCCB(O)O (stereo partly drawn) [Example 31a, (3aR,4S,6aR)-5-amino-4-(3-boronopropyl)-1-methyloctahydrocyclopenta[c]pyrrole-5-carboxylic acid]	89.9%		
N[C@@]1(C(=O)O)C[C@H]2[C@H](F)[C@@H](O)C[C@H]2[C@@H]1CCCB(O)O [Example 54a, (1S,2S,3aR,4S,5S,6aS)-2-amino-1-(3-boronopropyl)-4-fluoro-5-hydroxyoctahydropentalene-2-carboxylate]	101%		
N[C@@]1(C(=O)O)C[C@H]2CNC[C@H]2[C@@H]1CCCB(O)O [Example 1f, (3aR,4S,5S,6aR)-5-amino-4-(3-boronopropyl)octahydrocyclopenta[c]pyrrole-5-carboxylic acid]			inhibition at 16 µM (Top Dose 16000 nM, read-out: Percent Inhibition at Top Dose): 87.8%
C[C@@H]1NC[C@@H]2CC(N)(C(=O)O)[C@@H](CCCB(O)O)C21 (stereo partly drawn) [Example 31b, (3aR,6S,6aR)-5-amino-6-(3-boronopropyl)-1-methyloctahydrocyclopenta[c]pyrrole-5-carboxylic acid, HFBA Salt]	70%		
(1S,2S,3aR,4S,5R,6aS)-2-amino-1-(3-boronopropyl)-4-fluoro-5-(methylamino)octahydropentalene-2-carboxylate [Example 55a]		23.2 nM	Percent Inhibition at Top Dose (Top Dose 10000 nM): 103.1%
NCC(=O)N1C[C@@H]2CC(N)(C(=O)O)C(CCCB(O)O)[C@@H]2C1 (stereo in doubt) [Example 16, 5-amino-2-(2-aminoacetyl)-4-(3-boronopropyl)octahydrocyclopenta[c]pyrrole-5-carboxylic acid]	97.9%		
N[C@]1(C(=O)O)[C@H](CCCB(O)O)C[C@H]2NCC[C@H]21 [Example 20b, (3aR,4R,5R,6aR)-4-amino-5-(3-boronopropyl)octahydrocyclopenta[b]pyrrole-4-carboxylic acid]			inhibition at 10 µM [2]: 101%
CC(=O)N1C[C@@H]2CC(N)(C(=O)O)C(CCCB(O)O)[C@@H]2C1 (mixture of isomers) [Example 13a, rac-(3aR,6aR)-2-acetyl-5-amino-4-(3-boronopropyl)octahydrocyclopenta[c]pyrrole-5-carboxylic acid]	99%		
(1S,2S,3aR,4S,5R,6aS)-2-amino-1-(3-boronopropyl)-4-fluoro-5-hydroxyoctahydropentalene-2-carboxylate [Example 54b]		42.5 nM	Percent Inhibition at Top Dose (Top Dose 10000 nM): 100.1%
(1S,2S,3aR,5R,6R,6aR)-2-amino-1-(3-boronopropyl)-6-fluoro-5-(methylamino)octahydropentalene-2-carboxylate [Example 53b]		6.93 nM	Percent Inhibition at Top Dose (Top Dose 10000 nM): 100%
N[C@@]1(C(=O)O)C[C@H]2C[C@@H](NCC(F)(F)F)C[C@H]2[C@@H]1CCCB(O)O [Example 49, (1S,2S,3aR,5R,6aR)-2-amino-1-(3-boronopropyl)-5-((2,2,2-trifluoroethyl)amino)octahydropentalene-2-carboxylic acid]	85.9%		
NCC(=O)N1C[C@@H]2C[C@@](N)(C(=O)O)[C@@H](CCCB(O)O)[C@@H]2C1 [Example 5, (3aR,4S,5S,6aR)-5-amino-4-(3-boronopropyl)-2-glycyloctahydrocyclopenta[c]pyrrole-5-carboxylic acid]	95.1%	160 nM	
N[C@@]1(C(=O)O)C[C@H]2C[C@H](O)C[C@H]2[C@@H]1CCCB(O)O [Example 44b, (1S,2S,3aS,5S,6aR)-2-amino-1-(3-boronopropyl)-5-hydroxyoctahydropentalene-2-carboxylic acid]	97.4%	178 nM	
NC1(C(=O)O)C2CNC(C2)C1CCCB(O)O (stereo not drawn) [Example 24, 5-amino-6-(3-boronopropyl)-2-azabicyclo[2.2.1]heptane-5-carboxylic acid]			inhibition at 100 µM [3]: 95.9%
NC(=O)CN1CC2CC(N)(C(=O)O)C(CCCB(O)O)C2C1 (stereo not drawn) [Example 15, 5-amino-2-(2-amino-2-oxoethyl)-4-(3-boronopropyl)octahydrocyclopenta[c]pyrrole-5-carboxylic acid]	88.6%		
CN[C@@H]1C[C@@H]2C[C@@](N)(C(=O)O)[C@@H](CCCB(O)O)[C@@H]2C1 [Example 51a, (1S,2S,3aR,5R,6aR)-2-amino-1-(3-boronopropyl)-5-(methylamino)octahydropentalene-2-carboxylic acid]	99.6%	33 nM	
NC1(C(=O)O)CN2CCNC[C@H]2C1CCCB(O)O (stereo partly drawn) [Example 38a, (8aR)-7-amino-8-(3-boronopropyl)octahydropyrrolo[1,2-a]pyrazine-7-carboxylic acid]	63%		
(1S,2S,3aR,5S,6aR)-2-amino-1-(3-boronopropyl)-5-(methylamino)octahydropentalene-2-carboxylate [Example 51b]		20.5 nM	Percent Inhibition at Top Dose (Top Dose 10000 nM): 98.67%
C[C@H](N)C(=O)N1CCCC12CCC(N)(C(=O)O)C(CCCB(O)O)C2 (stereo partly drawn) [Example 26, 8-amino-1-((S)-2-aminopropanoyl)-7-(3-boronopropyl)-1-azaspiro[4.5]decane-8-carboxylic acid hydrochloride]			inhibition at 10 µM [2]: 45.2%
N=C(N)N1C[C@@H]2C[C@@](N)(C(=O)O)[C@@H](CCCB(O)O)[C@@H]2C1 (single isomer, unassigned) [Example 11a]	67.2%		
C[C@H](N)C(=O)N[C@H]1C[C@@H]2C[C@@](N)(C(=O)O)[C@@H](CCCB(O)O)[C@@H]2C1 [Example 46, (1S,2S,3aR,5S,6aR)-2-amino-5-((S)-2-aminopropanamido)-1-(3-boronopropyl)octahydropentalene-2-carboxylic acid]	96.8%	529 nM	
N[C@@]1(C(=O)O)C[C@H]2CN(Cc3ccc(F)cc3)C[C@H]2[C@@H]1CCCB(O)O [Example 3, (3aR,4S,5S,6aR)-5-amino-4-(3-boronopropyl)-2-(4-fluorobenzyl)octahydrocyclopenta[c]pyrrole-5-carboxylic acid]	99.8%		
NC1(C(=O)O)C[C@H]2CNC[C@H]2C1CCCB(O)O (relative stereo) [Example 1, (3aR,6aR-rel-)-5-amino-4-(3-boronopropyl)octahydrocyclopenta[c]pyrrole-5-carboxylic acid]			inhibition at 100 µM [3]: 99.4%
CC(C)[C@H](N)C(=O)N1C[C@@H]2C[C@@](N)(C(=O)O)[C@@H](CCCB(O)O)[C@@H]2C1 [Example 42, (3aR,4S,5S,6aR)-2-(L-valyl)-5-amino-4-(3-boronopropyl)octahydrocyclopenta[c]pyrrole-5-carboxylic acid]	98%	52 nM	
N[C@@]1(C(=O)O)C[C@H]2CNC[C@H]2[C@@H]1CCCB(O)O [Example 1e, (3aR,4S,5S,6aR)-5-amino-4-(3-boronopropyl)octahydrocyclopenta[c]pyrrole-5-carboxylic acid]	98.9%		
N[C@@]1(C(=O)O)C[C@H]2CNC(=O)[C@H]2[C@@H]1CCCB(O)O (single isomer, unassigned) [Example 23b]	38.8%		
